Data: ChEMBL document CHEMBL1909046, “DrugMatrix in vitro pharmacology data”

Assays:
[1] = molecular target: T1, C-X-C chemokine receptor type 1 (Homo sapiens, UniProt P25024); note: in other assays of this panel Not Active means under 50% inhibition at 10 µM
T1 sequence (P25024 whole entry): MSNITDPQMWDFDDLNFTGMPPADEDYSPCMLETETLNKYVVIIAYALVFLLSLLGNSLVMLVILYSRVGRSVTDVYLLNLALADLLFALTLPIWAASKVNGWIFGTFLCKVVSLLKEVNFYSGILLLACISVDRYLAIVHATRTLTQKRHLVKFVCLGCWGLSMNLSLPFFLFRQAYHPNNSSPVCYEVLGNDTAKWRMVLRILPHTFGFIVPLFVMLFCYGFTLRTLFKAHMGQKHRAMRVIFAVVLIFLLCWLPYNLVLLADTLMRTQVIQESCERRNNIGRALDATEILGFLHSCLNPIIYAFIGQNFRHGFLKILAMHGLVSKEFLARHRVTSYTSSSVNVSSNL

[2] = molecular target: T2, Cysteinyl leukotriene receptor 1 (Homo sapiens, UniProt Q9Y271); format: cell membranes, CHO-K1, Membrane; conditions: cho-k1; note: in other assays of this panel Not Active means under 50% inhibition at 10 µM
T2 sequence (Q9Y271 whole entry): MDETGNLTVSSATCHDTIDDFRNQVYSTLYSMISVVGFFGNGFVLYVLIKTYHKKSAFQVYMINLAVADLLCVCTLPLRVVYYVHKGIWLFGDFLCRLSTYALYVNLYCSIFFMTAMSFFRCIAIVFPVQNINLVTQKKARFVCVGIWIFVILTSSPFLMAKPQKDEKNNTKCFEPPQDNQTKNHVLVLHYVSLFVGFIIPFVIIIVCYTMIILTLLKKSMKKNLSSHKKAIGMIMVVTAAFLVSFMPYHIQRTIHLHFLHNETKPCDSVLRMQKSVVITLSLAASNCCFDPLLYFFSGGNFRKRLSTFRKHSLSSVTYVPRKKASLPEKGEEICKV

[3] = molecular target: T3, Alpha-1B adrenergic receptor (Rattus norvegicus, UniProt P15823); assay: DRUGMATRIX: Alpha-1B adrenergic receptor radioligand binding (ligand: prazosin); format: cell membranes, Wistar, Liver, Membrane; conditions: Not Active = under 50% inhibition at 10 µM
T3 sequence (P15823 whole entry): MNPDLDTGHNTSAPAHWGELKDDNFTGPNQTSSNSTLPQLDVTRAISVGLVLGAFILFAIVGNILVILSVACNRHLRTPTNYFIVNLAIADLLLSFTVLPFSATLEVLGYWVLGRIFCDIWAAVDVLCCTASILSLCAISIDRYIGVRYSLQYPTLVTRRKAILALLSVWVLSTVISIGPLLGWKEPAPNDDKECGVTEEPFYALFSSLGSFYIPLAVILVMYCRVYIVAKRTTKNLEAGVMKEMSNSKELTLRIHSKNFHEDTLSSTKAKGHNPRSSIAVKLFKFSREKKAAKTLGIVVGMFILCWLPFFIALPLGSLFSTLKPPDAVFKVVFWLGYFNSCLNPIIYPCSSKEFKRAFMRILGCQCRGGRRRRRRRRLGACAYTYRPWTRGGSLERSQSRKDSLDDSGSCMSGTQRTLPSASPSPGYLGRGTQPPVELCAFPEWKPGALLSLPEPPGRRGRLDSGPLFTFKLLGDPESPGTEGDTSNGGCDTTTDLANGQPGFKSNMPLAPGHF

[4] = molecular target: T4, Vasoactive intestinal polypeptide receptor 1 (Homo sapiens, UniProt P32241); format: cell membranes, Membrane; conditions: ht-29; note: in other assays of this panel Not Active means under 50% inhibition at 10 µM
T4 sequence (P32241 whole entry): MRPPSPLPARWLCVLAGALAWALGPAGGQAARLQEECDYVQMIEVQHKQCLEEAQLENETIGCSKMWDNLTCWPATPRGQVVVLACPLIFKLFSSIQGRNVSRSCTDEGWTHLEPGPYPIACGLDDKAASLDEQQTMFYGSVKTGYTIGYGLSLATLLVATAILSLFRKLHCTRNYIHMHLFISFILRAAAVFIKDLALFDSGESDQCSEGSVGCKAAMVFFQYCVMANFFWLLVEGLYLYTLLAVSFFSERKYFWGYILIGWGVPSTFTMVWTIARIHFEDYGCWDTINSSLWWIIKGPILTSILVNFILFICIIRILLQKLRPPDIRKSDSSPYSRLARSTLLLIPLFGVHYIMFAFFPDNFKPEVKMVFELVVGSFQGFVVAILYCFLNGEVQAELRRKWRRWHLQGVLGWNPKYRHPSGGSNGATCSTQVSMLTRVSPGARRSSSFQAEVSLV

[5] = molecular target: T5, 3-hydroxy-3-methylglutaryl-coenzyme A reductase (Homo sapiens, UniProt P04035); parameters: species or system Escherichia coli;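 note: enzyme inhibition assay of HMG-CoA reductase using radiolabeled [14C]HMG-CoA as substrate; in other assays of this panel Not Active means under 50% inhibition at 10 µM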
T5 sequence (P04035 whole entry): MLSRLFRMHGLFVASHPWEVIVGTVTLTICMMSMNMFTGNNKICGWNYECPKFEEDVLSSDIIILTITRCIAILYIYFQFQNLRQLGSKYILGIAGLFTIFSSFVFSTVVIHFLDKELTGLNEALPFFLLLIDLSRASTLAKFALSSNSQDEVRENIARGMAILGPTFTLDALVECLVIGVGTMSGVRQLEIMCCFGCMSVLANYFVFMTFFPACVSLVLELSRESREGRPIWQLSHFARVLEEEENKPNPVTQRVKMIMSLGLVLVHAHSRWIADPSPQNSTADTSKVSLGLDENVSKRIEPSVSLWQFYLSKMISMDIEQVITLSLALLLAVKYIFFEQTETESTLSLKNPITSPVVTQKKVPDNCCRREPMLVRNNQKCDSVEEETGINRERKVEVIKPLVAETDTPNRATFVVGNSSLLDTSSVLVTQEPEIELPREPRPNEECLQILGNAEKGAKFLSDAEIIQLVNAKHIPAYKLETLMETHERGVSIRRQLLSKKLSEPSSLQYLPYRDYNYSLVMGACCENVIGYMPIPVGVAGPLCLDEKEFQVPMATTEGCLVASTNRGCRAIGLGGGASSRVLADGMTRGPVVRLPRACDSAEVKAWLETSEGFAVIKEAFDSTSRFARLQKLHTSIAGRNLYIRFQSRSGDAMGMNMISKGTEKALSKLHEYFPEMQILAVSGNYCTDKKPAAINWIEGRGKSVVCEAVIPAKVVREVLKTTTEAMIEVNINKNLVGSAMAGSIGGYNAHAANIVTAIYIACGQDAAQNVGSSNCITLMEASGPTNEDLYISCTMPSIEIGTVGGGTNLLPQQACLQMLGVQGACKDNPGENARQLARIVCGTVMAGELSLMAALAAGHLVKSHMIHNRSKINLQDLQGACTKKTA

Measured: IC50

Cc1cccc(Nc2ccncc2S(=O)(=O)NC(=O)NC(C)C)c1 [TORSEMIDE]
Not Active: all assays above

CC(C)C[C@H](NC(=O)[C@@H](O)[C@H](N)Cc1ccccc1)C(=O)O [UBENIMEX]
Not Active: all assays above

Cc1onc(-c2ccccc2)c1-c1ccc(S(N)(=O)=O)cc1 [VALDECOXIB]
Not Active: all assays above

CC[C@]1(O)C[C@@H]2CN(CCc3c([nH]c4ccccc34)[C@@](C(=O)OC)(c3cc4c(cc3OC)N(C)[C@H]3[C@@](O)(C(=O)OC)[C@H](OC(C)=O)[C@]5(CC)C=CCN6CC[C@]43[C@@H]65)C2)C1 [VINBLASTINE]
Not Active: all assays above

CC(=O)CC(c1ccccc1)c1c(O)c2ccccc2oc1=O (stereo not given) [WARFARIN]
Not Active: all assays above

C[C@@H](N)[C@H]1CC[C@H](C(=O)Nc2ccncc2)CC1 [Y-27632]
Not Active: all assays above

[Cl-].[Cl-].[Zn+2] [ZINC CHLORIDE]
Not Active: all assays above
